Values quoted from earlier work in US11298325B2, “Pharmaceutical compositions of pimobendan” (Boehringer Ingelheim Vetmedica GmbH, priority 2013, dated 2022).

Experiments:
[1] = pH 5
[2] = low solubility and low permeability

## COc1ccc(-c2nc3ccc(C4=NNC(=O)CC4C)cc3[nH]2)cc1 (centres unmarked) [pimobendan]
[1]
  Solubility in water: about 1 mg/liter
[2]
  Class in the Biopharmaceutics Classification Systems: Class IV
